Measurements: publication PMC3830801, “Synthesis and Biological Evaluation of 2-Hydroxy-3-[(2-aryloxyethyl)amino]propyl 4-[(Alkoxycarbonyl)amino]benzoates” (The Scientific World Journal, 2013)

Tests used:
[1] = test system: Mycobacterium avium subsp. paratuberculosis CIT03; assay: In vitro antimycobacterial evaluation (alamarBlue, MIC); format: cell-based; details: for MIC: Mycobacterium avium, 264 h, MIC/IC90, 11 days incubation, 37°C
Method: (§1) Clinical isolates of Mycobacterium avium subsp. paratuberculosis CIT03 and M. intracellulare were grown in Middlebrook broth (MB), supplemented with oleic-albumin-dextrose-catalase supplement (OADC, Becton Dickinson, UK) and mycobactin J (2 μg/mL). Identification of these isolates was performed using biochemical and molecular protocols. At log phase growth, the culture (10 mL) was centrifuged at 15,000 rpm/20 min using a bench top centrifuge (Model CR 4–12, Jouan Inc., UK). Following the removal of the supernatant, the pellet was washed in fresh Middlebrook 7H9GC broth and resuspended in fresh supplemented MB (10 mL). The turbidity was adjusted to match McFarland standard no. 1 (3 × 10^8 cfu) with MB broth. A further 1 : 20 dilution of the culture was then performed in MB broth. The antimicrobial susceptibility of all four mycobacterial species was investigated in a 96-well plate format. In these experiments, sterile deionised water (300 μL) was added to all outer-perimeter wells of the plates to minimize evaporation of the medium in the test wells during incubation. Each evaluated compound (100 μL) was incubated with each of the mycobacterial species (100 μL). Dilutions of each compound were prepared in duplicate. For all synthesized compounds, final concentrations ranged from 1,000 μg/mL to 8 μg/mL. All compounds were prepared in DMSO, and subsequent dilutions were made in supplemented MB. The plates were sealed with parafilm and incubated at 37°C, for 7 days in the case of M. intracellulare and 11 days in the case of M. avium paratuberculosis. Following incubation, a 10% addition of alamarBlue (AbD Serotec) was mixed with each well, and readings at 570 nm and 600 nm were taken, initially for background subtraction and subsequently after 24 h reincubation. […] For noninterfering compounds, a blue colour in the well was interpreted as an absence of growth, and a pink colour was scored as growth. The MIC was initially defined as the lowest concentration which prevented a visual colour change from blue to pink. […] The MIC/IC90 value is routinely and widely used in bacterial assays and is a standard detection limit according to the Clinical and Laboratory Standards Institute (CLSI, http://www.clsi.org/).

[2] = test system: Mycobacterium intracellulare; assay: as above; format: cell-based; details: for MIC: Mycobacterium intracellulare, 168 h, MIC/IC90, 7 days incubation, 37°C
Method: as §1

[3] = pKa determination by RP-HPLC; format: physicochemical; details: from retention factor vs pH of mobile phase, recalculated for water medium
[4] = Lipophilicity determination by HPLC (capacity factor k / log k); format: physicochemical; details: RP-HPLC, C18, MeOH 55%/H2O 45%
Excerpt: A Waters Alliance 2695 XE HPLC separation module and a Waters Photodiode Array Detector 2996 (Waters Corp., Milford, MA, USA) were used. A Symmetry C18 5 μm, 4.6 × 250 mm, part number WAT054275 (Waters Corp., Milford, MA, USA) chromatographic column was used. The HPLC separation process was monitored by Empower 2 Chromatography Data Software, Waters 2009 (Waters Corp., Milford, MA, USA). A mixture of MeOH p.a. (55%) and H2O-HPLC–Milli-Q Grade (45%) was used as a mobile phase. The total flow of the column was 1.0 mL/min, injection volume 30 μL, column temperature 45°C, and sample temperature 10°C. The detection wavelength of 210 nm was chosen. The KI methanolic solution was used for the dead time (t D) determination. Retention times (t R) were measured in minutes. The capacity factors k were calculated using the Empower 2 Chromatography Data Software according to formula k = (t R − t D)/t D, where t R is the retention time of the solute, whereas t D denotes the dead time obtained using an unretained analyte. logk, calculated from the capacity factor k, is used as the lipophilicity index converted to logP scale.

spinach chloroplasts = assay: Photosynthetic electron transport (PET) in spinach chloroplasts (DCPIP photoreduction); format: biochemical, Spinacia oleracea L.; details: DMSO 8% v/v
Method: Chloroplasts were prepared from spinach (Spinacia oleracea L.) according to Masarovičová and Král'ová [38]. The inhibition of photosynthetic electron transport (PET) in spinach chloroplasts was determined spectrophotometrically (Genesys 6, Thermo Scientific, USA), using an artificial electron acceptor 2,6-dichlorophenol-indophenol (DCIPP) according to Král'ová et al., and the rate of photosynthetic electron transport was monitored as a photoreduction of DCPIP. The measurements were carried out in phosphate buffer (0.02 mol/L, pH 7.2) containing sucrose (0.4 mol/L), MgCl2 (0.005 mol/L), and NaCl (0.015 mol/L). The chlorophyll content was 30 mg/L in these experiments, and the samples were irradiated (~100 W/m^2 with 10 cm distance) with a halogen lamp (250 W) using a 4 cm water filter to prevent warming of the samples (suspension temperature 22°C). The studied compounds were dissolved in DMSO due to their limited water solubility, and the concentration of DMSO was constant (8% (v/v)) in control as well as in amphiphile-treated samples.

Compound	MIC [1]	MIC [2]	pKa [3]	Log k [4]	effect on the rate of PET (in words) (spinach chloroplasts)	antimycobacterial activity against M. avium subsp. paratuberculosis (in words) [1]	antimycobacterial activity against M. intracellulare (in words) [2]
COC(=O)Nc1ccc(C(=O)OCC(O)CNCCOc2ccccc2OC)cc1.Cl (stereo not shown) [Compound 19a, 2-Hydroxy-3-[2-(2-methoxyphenoxy)ethylamino]-propyl 4-(Methoxycarbonylamino)benzoate Hydrochloride]	275 µM	550 µM	8.82	0.3870	–	–	–
CCOC(=O)Nc1ccc(C(=O)OCC(O)CNCCOc2ccccc2OC)cc1.Cl (stereo not shown) [Compound 19b, 2-Hydroxy-3-[2-(2-methoxyphenoxy)ethylamino]-propyl 4-(Ethoxycarbonylamino)benzoate Hydrochloride]	128 µM	533 µM	8.9	0.3976	–	–	–
CCCOC(=O)Nc1ccc(C(=O)OCC(O)CNCCOc2ccccc2OC)cc1.Cl (stereo not shown) [Compound 19c, 2-Hydroxy-3-[2-(2-methoxyphenoxy)ethylamino]-propyl 4-(Propoxycarbonylamino)benzoate Hydrochloride]	64 µM	259 µM	8.67	0.4089	relatively strong PET stimulation	–	–
CCCCOC(=O)Nc1ccc(C(=O)OCC(O)CNCCOc2ccccc2OC)cc1.Cl (stereo not shown) [Compound 19d, 2-Hydroxy-3-[2-(2-methoxyphenoxy)ethylamino]-propyl 4-(Butoxycarbonylamino)benzoate Hydrochloride]	62 µM	201 µM	8.73	0.4228	significantly stimulated the rate of PET	–	–
COC(=O)Nc1ccc(C(=O)OCC(O)CNCCOc2ccc(OC)cc2)cc1.Cl (stereo not shown) [Compound 20a, 2-Hydroxy-3-[2-(4-methoxyphenoxy)ethylamino]-propyl 4-(Methoxycarbonylamino)benzoate Hydrochloride]	550 µM	550 µM	8.25	0.3881	–	–	–
CCOC(=O)Nc1ccc(C(=O)OCC(O)CNCCOc2ccc(OC)cc2)cc1.Cl (stereo not shown) [Compound 20b, 2-Hydroxy-3-[2-(4-methoxyphenoxy)ethylamino]-propyl 4-(Ethoxycarbonylamino)benzoate Hydrochloride]	533 µM	533 µM	8.23	0.3999	–	–	–
CCCOC(=O)Nc1ccc(C(=O)OCC(O)CNCCOc2ccc(OC)cc2)cc1.Cl (stereo not shown) [Compound 20c, 2-Hydroxy-3-[2-(4-methoxyphenoxy)ethylamino]-propyl 4-(Propoxycarbonylamino)benzoate Hydrochloride]	259 µM	259 µM	7.99	0.4108	relatively strong PET stimulation	–	–
COC(=O)Nc1ccc(C(=O)OCC(O)CNCCOc2c(OC)cccc2OC)cc1.Cl (stereo not shown) [Compound 21a, 2-Hydroxy-3-[2-(2,6-dimethoxyphenoxy)ethylamino]-propyl 4-(Methoxycarbonylamino)benzoate Hydrochloride]	516 µM	516 µM	9.14	0.3865	–	–	–
CCOC(=O)Nc1ccc(C(=O)OCC(O)CNCCOc2c(OC)cccc2OC)cc1.Cl (stereo not shown) [Compound 21b, 2-Hydroxy-3-[2-(2,6-dimethoxyphenoxy)ethylamino]-propyl 4-(Ethoxycarbonylamino)benzoate Hydrochloride]	501 µM	501 µM	8.88	0.3956	–	–	–
CCCOC(=O)Nc1ccc(C(=O)OCC(O)CNCCOc2c(OC)cccc2OC)cc1.Cl (stereo not shown) [Compound 21c, 2-Hydroxy-3-[2-(2,6-dimethoxyphenoxy)ethylamino]-propyl 4-(Propoxycarbonylamino)benzoate Hydrochloride]	117 µM	487 µM	8.9	0.4052	–	–	–
COC(=O)Nc1ccc(C(=O)OCC(O)CNCCOc2ccccc2F)cc1.Cl (stereo not shown) [Compound 22a, 3-[2-(2-Fluorophenoxy)ethylamino]-2-hydroxypropyl 4-(Methoxycarbonylamino)benzoate Hydrochloride]	564 µM	564 µM	7.98	0.3904	–	–	–
CCOC(=O)Nc1ccc(C(=O)OCC(O)CNCCOc2ccccc2F)cc1.Cl (stereo not shown) [Compound 22b, 3-[2-(2-Fluorophenoxy)ethylamino]-2-hydroxypropyl 4-(Ethoxycarbonylamino)benzoate Hydrochloride]	547 µM	547 µM	7.99	0.4011	–	–	–
CCCOC(=O)Nc1ccc(C(=O)OCC(O)CNCCOc2ccccc2F)cc1.Cl (stereo not shown) [Compound 22c, 3-[2-(2-Fluorophenoxy)ethylamino]-2-hydroxypropyl 4-(Propoxycarbonylamino)benzoate Hydrochloride]	265 µM	265 µM	7.97	0.4206	–	–	–
COC(=O)Nc1ccc(C(=O)OCC(O)CNCCOc2ccc(F)cc2)cc1.Cl (stereo not shown) [Compound 23a, 3-[2-(4-Fluorophenoxy)ethylamino]-2-hydroxypropyl 4-(Methoxycarbonylamino)benzoate Hydrochloride]	564 µM	564 µM	8.04	0.3915	–	–	–
CCOC(=O)Nc1ccc(C(=O)OCC(O)CNCCOc2ccc(F)cc2)cc1.Cl (stereo not shown) [Compound 23b, 3-[2-(4-Fluorophenoxy)ethylamino]-2-hydroxypropyl 4-(Ethoxycarbonylamino)benzoate Hydrochloride]	547 µM	547 µM	8.09	0.4032	–	–	–
CCCOC(=O)Nc1ccc(C(=O)OCC(O)CNCCOc2ccc(F)cc2)cc1.Cl (stereo not shown) [Compound 23c, 3-[2-(4-Fluorophenoxy)ethylamino]-2-hydroxypropyl 4-(Propoxycarbonylamino)benzoate Hydrochloride]	66 µM	265 µM	8.16	0.4228	–	–	–
NNC(=O)c1ccncc1 [INH, isoniazid, reference compound]	> 1820 µM	> 729 µM	–	–	–	inactive	inactive
NC(=O)c1cnccn1 [PZA, pyrazinamide, reference compound]	> 2030 µM	> 812 µM	–	–	–	inactive	inactive
CO[C@H]1/C=C/O[C@@]2(C)Oc3c(C)c(O)c4c(O)c(c(/C=N/N5CCN(C)CC5)c(O)c4c3C2=O)NC(=O)/C(C)=C\C=C\[C@H](C)[C@H](O)[C@@H](C)[C@@H](O)[C@@H](C)[C@H](OC(C)=O)[C@@H]1C [RIF, rifampicin, reference compound]	> 109 µM	–	–	–	–	–	–
